Source: EP4737445A1, “NOVEL SATURATED HETEROCYCLE-SUBSTITUTED HETEROARYL-CARBONOHYDRAZONOYL DICYANIDE COMPOUND AND USE THEREOF” (Korea Institute of Science and Technology, priority 2023, dated 2025)

Key:
[1] = biological target: T1, CYP3A4 (Homo sapiens, UniProt P08684); test: CYP isoenzyme activity inhibition in human liver microsomes, CYP3A4; format: in vitro ADME; conditions: 10 µM compound; human liver microsomes 0.25 mg/mL; relative to control without compound
T1 construct: human liver microsomes (0.25 mg/mL); from tissue; host or cells: human liver microsomes
Procedure, shortened: (§1)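 Human liver microsomes 0.25 mg/mL, pH 7.4 phosphate, with cocktail substrates phenacetin 50 µM (1A2), diclofenac 10 µM (2C9), S-mephenytoin 100 µM (2C19), midazolam 2.5 µM (3A4); compound at 10 µM. 5 min pre-incubation, then NADPH for 15 min at 37 °C; metabolites by LC-MS/MS MRM, reported as % activity of no-compound control.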

[2] = biological target: T2, TDP-43 protein (Homo sapiens, UniProt Q13148); test: TDP-43 aggregation inhibition in TDP-43-BiFC cell model (Forskolin-induced); format: cell-based; conditions: for inhibition at 3 µM: read-out: TDP-43 protein aggregation inhibitory effect: Aggregation inhibitory effect (%) (@3 uM)
T2 construct: BiFC fluorescent-protein fragments (two complementary halves); expressed in transfected cells
Procedure, shortened: (§2)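 Forskolin (30 µM) co-treated with compound (screen 3 and 10 µM; dose-response 0.003–10 µM) for 48 h. BiFC fluorescence normalised to Forskolin-only (100% aggregation) minus untreated; viability from Hoechst-stained nuclei count vs Forskolin-only. IC50 by nonlinear regression.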

[3] = biological target: T3, CYP2C19 (Homo sapiens, UniProt P33261); test: CYP isoenzyme activity inhibition in human liver microsomes, CYP2C19; format: in vitro ADME; conditions: 10 µM compound; human liver microsomes 0.25 mg/mL; relative to control without compound
T3 construct: human liver microsomes (0.25 mg/mL); from tissue; host or cells: human liver microsomes
Procedure, shortened: as §1

[4] = tested on: TDP-43 BiFC cells; test: Cell viability (stained nuclei count) in TDP-43-BiFC cells; format: cell-based; conditions: Forskolin-only group = 100%
Procedure, shortened: as §2

[5] = Liver microsomal stability, human; format: in vitro ADME; conditions: 1 µM compound; 0.5 mg/mL microsomes; NADPH; 30 minutes at 37°C
Procedure, shortened: (§3)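 Compound (1 µM) incubated with liver microsomes (0.5 mg/mL; human, dog, rat, mouse) in 0.1 M phosphate pH 7.4, 5 min preincubation at 37°C, then 30 min with NADPH-generating system. Acetonitrile quench; remaining parent quantified by LC-MS/MS.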

[6] = Liver microsomal stability, rat; format: in vitro ADME; conditions: 1 µM compound; 0.5 mg/mL microsomes; NADPH; 30 minutes at 37°C
Procedure, shortened: as §3

T1 sequence (P08684 whole entry): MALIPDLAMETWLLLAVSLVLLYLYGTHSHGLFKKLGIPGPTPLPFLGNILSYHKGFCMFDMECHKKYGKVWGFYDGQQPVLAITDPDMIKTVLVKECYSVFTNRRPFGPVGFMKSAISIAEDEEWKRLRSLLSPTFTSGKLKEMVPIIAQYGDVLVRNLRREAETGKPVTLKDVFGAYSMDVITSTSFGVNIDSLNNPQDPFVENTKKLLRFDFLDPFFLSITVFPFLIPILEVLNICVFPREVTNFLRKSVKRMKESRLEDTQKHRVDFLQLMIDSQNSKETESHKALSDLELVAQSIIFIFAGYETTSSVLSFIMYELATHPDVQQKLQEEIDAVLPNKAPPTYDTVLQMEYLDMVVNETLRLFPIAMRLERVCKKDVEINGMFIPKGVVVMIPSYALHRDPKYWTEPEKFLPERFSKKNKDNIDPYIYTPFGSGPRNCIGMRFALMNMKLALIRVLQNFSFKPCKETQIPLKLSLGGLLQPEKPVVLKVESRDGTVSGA
T2 sequence (Q13148 whole entry, the tested form may be a part): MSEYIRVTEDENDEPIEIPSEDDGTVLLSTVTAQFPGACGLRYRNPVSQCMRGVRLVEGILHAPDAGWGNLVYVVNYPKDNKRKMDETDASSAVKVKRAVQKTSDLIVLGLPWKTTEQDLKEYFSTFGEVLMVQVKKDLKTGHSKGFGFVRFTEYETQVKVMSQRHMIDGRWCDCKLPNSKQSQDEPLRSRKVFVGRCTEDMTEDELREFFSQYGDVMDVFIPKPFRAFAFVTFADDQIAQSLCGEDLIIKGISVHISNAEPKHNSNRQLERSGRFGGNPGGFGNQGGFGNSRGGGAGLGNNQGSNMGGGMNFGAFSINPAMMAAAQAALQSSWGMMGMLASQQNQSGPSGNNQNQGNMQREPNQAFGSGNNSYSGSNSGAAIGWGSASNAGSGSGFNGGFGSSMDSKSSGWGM
T3 sequence (P33261 whole entry): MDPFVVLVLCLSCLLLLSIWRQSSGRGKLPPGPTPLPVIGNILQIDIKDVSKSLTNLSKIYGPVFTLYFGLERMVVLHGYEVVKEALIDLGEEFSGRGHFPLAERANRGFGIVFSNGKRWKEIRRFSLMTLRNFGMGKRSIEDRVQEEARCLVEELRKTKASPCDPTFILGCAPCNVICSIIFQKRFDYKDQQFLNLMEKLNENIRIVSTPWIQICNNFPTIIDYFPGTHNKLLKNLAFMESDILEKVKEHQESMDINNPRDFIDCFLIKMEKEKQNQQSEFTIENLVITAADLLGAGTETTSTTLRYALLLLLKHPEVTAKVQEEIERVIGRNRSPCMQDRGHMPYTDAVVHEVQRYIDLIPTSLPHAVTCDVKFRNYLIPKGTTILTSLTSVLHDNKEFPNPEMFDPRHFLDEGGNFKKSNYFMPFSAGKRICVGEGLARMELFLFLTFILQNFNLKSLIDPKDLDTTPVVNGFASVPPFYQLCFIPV

| Compound | CYP3A4 (% activity) [1] | IC50 [2] | inhibition at 3 µM [2] | CYP2C19 (% activity) [3] | Cell viability (%) (@ 3 uM) [4] | Human microsomes (% remaining) [5] | Rat microsomes (% remaining) [6] |
| --- | --- | --- | --- | --- | --- | --- | --- |
| N#CC(C#N)=NNc1ccc2nc(N3CC4CCC(C3)O4)oc2c1 [Compound 26, (2-(8-oxa-3-azabicyclo[3.2.1]octan-3-yl)benzo[d]oxazol-6-yl)carbonohydrazonoyl dicyanide] | 81.3 % activity | 248 nM | 94.8% | 82.1 % activity | 76.1% | 96.3 % remaining | 95.1 % remaining |
| COC1CCN(c2nc3ccc(NN=C(C#N)C#N)cc3s2)CC1 [Compound 9, (2-(4-methoxypiperidin-1-yl)benzo[d]thiazol-6-yl)carbonohydrazonoyl dicyanide] | 66.1 % activity | – | 100% | 86.9 % activity | 76.2% | 5.0 % remaining | 17.7 % remaining |
| CC1CN(c2nc3ccc(NN=C(C#N)C#N)cc3s2)CC(C)O1 (stereo not drawn) [Compound 10, (2-(2,6-dimethylmorpholino)benzo[d]thiazol-6-yl)carbonohydrazonoyl dicyanide] | 74.5 % activity | – | 100% | 83.6 % activity | 83.8% | 69.4 % remaining | 84.8 % remaining |
| N#CC(C#N)=NNc1ccc2sc(N3CCOCC3)nc2c1 [Compound 1, (2-morpholinobenzo[d]thiazol-5-yl)carbonohydrazonoyl dicyanide] | 95.5 % activity | – | 78.1% | > 100 % activity | 87.5% | 91.2 % remaining | 2.1 % remaining |
| Cn1c(N2CCOCC2)nc2ccc(NN=C(C#N)C#N)cc21 [Compound 5, (1-methyl-2-morpholino-1H-benzo[d]imidazol-6-yl)carbonohydrazonoyl dicyanide] | 86.1 % activity | – | 94.7% | 90.2 % activity | 109.2% | 77.8 % remaining | 77.8 % remaining |
| N#CC(C#N)=NNc1ccc2oc(N3CCOCC3)nc2c1 [Compound 3, (2-morpholinobenzo[d]oxazol-5-yl)carbonohydrazonoyl dicyanide] | > 100 % activity | – | 79.6% | > 100 % activity | 102.3% | 99.4 % remaining | 73.0 % remaining |
| COC1CCN(c2nc3ccc(NN=C(C#N)C#N)cc3o2)CC1 [Compound 17, (2-(4-methoxypiperidin-1-yl)benzo[d]oxazol-6-yl)carbonohydrazonoyl dicyanide] | 87.1 % activity | – | 100% | 90 % activity | 96.9% | 16.7 % remaining | 59.3 % remaining |
| CC1CN(C(=O)Nc2nc3ccc(NN=C(C#N)C#N)cc3s2)CC(C)O1 (stereo not drawn) [Compound 39, (2-(2,6-dimethylmorpholine-4-carboxamido)benzo[d]thiazol-6-yl)carbonohydrazonoyl dicyanide] | 56.5 % activity | – | 58.7% | 78.6 % activity | 117.7% | 83.8 % remaining | 82.3 % remaining |
| N#CC(C#N)=NNc1ccc2nc(N3CC[C@@H](F)C3)oc2c1 [Compound 41, (R)-(2-(3-fluoropyrrolidin-1-yl)benzo[d]oxazol-6-yl)carbonohydrazonoyl dicyanide] | 86.5 % activity | – | 87.8% | 86.7 % activity | 71.5% | 70.0 % remaining | 19.0 % remaining |
| Cn1c(N2C3CCC2COC3)nc2cc(NN=C(C#N)C#N)ccc21 [Compound 35, (2-(3-oxa-8-azabicyclo[3.2.1]octan-8-yl)-1-methyl-1H-benzo[d]imidazol-5-yl)carbonohydrazonoyl dicyanide] | 86.1 % activity | 192 nM | 62.9% | 82 % activity | 67.4% | 94.3 % remaining | 74.1 % remaining |
| CN1CCN(c2nc3ccc(NN=C(C#N)C#N)cc3s2)CC1 [Compound 8, (2-(4-methylpiperazin-1-yl)benzo[d]thiazol-6-yl)carbonohydrazonoyl dicyanide] | 95 % activity | – | 100% | > 100 % activity | 83.0% | 83.9 % remaining | 76.6 % remaining |
| N#CC(C#N)=NNc1ccc2nc(NC(=O)N3CC4CCC(C3)O4)sc2c1 [Compound 40, (2-(8-oxa-3-azabicyclo[3.2.1]octane-3-carboxamido)benzo[d]thiazol-6-yl)carbonohydrazonoyl dicyanide] | 75.5 % activity | – | 67.7% | 65.7 % activity | 95.6% | 94.2 % remaining | 87.7 % remaining |
| CC(=O)N1CCN(c2nc3ccc(NN=C(C#N)C#N)cc3s2)CC1 [Compound 30, (2-(4-acetylpiperazin-1-yl)benzo[d]thiazol-6-yl)carbonohydrazonoyl dicyanide] | 74.6 % activity | 146 nM | 88% | 86.2 % activity | 83.1% | > 100 % remaining | 91.9 % remaining |
